Laboratory results reported in patent US20250228239A1, “MOLECULES HAVING PESTICIDAL UTILITY, AND INTERMEDIATES, COMPOSITIONS, AND PROCESSES, RELATED THERETO” (priority 2024, published 2025).
Where two headings read alike, the source gives them in different places.

How the values were obtained:
Format in all cases: in vivo
[1] = system: Yellow Fever Mosquito (Aedes aegypti, AEDSAE); conditions: for YFM rating: Table ABC / ABC-DP rating
In short: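 Compounds from DMSO master plates (4000 ppm stock) diluted in 90:10 water/acetone, then dispensed into six replicate plates and infested with ~1-day-old Aedes aegypti larvae in liver-powder water. Held covered at room temperature for 3 days; each well scored for larval mortality and graded on a rating scale.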

[2] = system: Beet Armyworm (Spodoptera exigua, LAPHEG); assay: Bioassays on Beet Armyworm (BAW), 128-well diet tray assay; conditions: Spodoptera exigua
In short: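 Percent larval mortality, averaged across eight wells, scored after five to seven days at 25° C. under 14:10 light-dark. Each well held one to five second instars feeding on diet dosed at 50 μg/cm^2 with compound from 90:10 acetone-water, solvent dried off.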

[3] = system: Cabbage Looper (Trichoplusia ni, TRIPNI); assay: Bioassays on Cabbage Looper (CL), 128-well diet tray assay; conditions: Trichoplusia ni
In short: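 Activity is mean percent mortality over eight wells of second-instar larvae exposed to diet treated at 50 μg/cm^2 for 5–7 days at 25° C.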

[4] = system: Green Peach Aphid (Myzus persicae, MYZUPE); assay: Bioassays on Green Peach Aphid (GPA), foliar spray on cabbage seedlings; conditions: 72 h
In short: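 Percent control (Abbott-corrected versus solvent-sprayed plants) comes from live-aphid counts three days after treatment at about 25° C. Test solution at 200 ppm was sprayed to runoff onto both leaf surfaces of cabbage seedlings infested a day earlier with 20-50 aphids; four replicate pots.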

[5] = Beet Armyworm, Table ABC / ABC-DP rating, read-out: BAW rating
[6] = Cabbage Looper, Table ABC / ABC-DP rating, read-out: CL rating
[7] = Green Peach Aphid, Table ABC / ABC-DP rating, read-out: GPA rating
[8] = Table ABC: Biological Results, species YFM
[9] = Table ABC: Biological Results, species BAW, read-out: BAW
[10] = Table ABC: Biological Results, species CL, read-out: CL
[11] = Table ABC: Biological Results, species GPA, read-out: GPA
[12] = Yellow Fever Mosquito, rating class
[13] = Beet Armyworm, rating class, read-out: BAW
[14] = Cabbage Looper, rating class, read-out: CL
[15] = Green Peach Aphid, rating class, read-out: GPA

SMILES | YFM rating ([1]; Yellow Fever Mosquito) | pest or weed control at 50 µg/cm2 [2, 5] | pest or weed control at 50 µg/cm2 [3, 6] | pest or weed control at 200 µg/mL [4, 7] | YFM [1, 12] | pest or weed control at 50 µg/cm2 [2, 13] | pest or weed control at 50 µg/cm2 [3, 14] | pest or weed control at 200 µg/mL [4, 15] | also measured
Nc1c(F)ccc(NC(=O)c2cc(NC(=O)[C@H]3[C@H](c4ccc(F)c(C(F)(F)F)c4)C3(Cl)Cl)ccc2Cl)c1F (relative stereo) [DP8, trans-N-(3-amino-2,4-difluorophenyl)-2-chloro-5-(2,2-dichloro-3-(4-fluoro-3-(trifluoromethyl)phenyl)cyclopropane-1-carboxamido)benzamide] | A (80–100) | 50 to 100% | 50 to 100% | 80 to 100% |  |  |  |  | YFM % Control (or Mortality) rating ([1]; about 1 day-old larvae, 4000 ppm master solution diluted with 90:10 water/acetone, 15 μL per well plus 220 μL larval mixture, 3 days, mortality): A (80–100); mortality at 50 µg/cm2 ([2]; 168 h, second instar larvae, 50 μg/cm^2 of test molecule on artificial diet, 25° C., five to seven days, average of eight wells, read-out: BAW % Control (or Mortality) rating): 50 to 100%; mortality at 50 µg/cm2 ([3]; 168 h, second instar larvae, 50 μg/cm^2 of test molecule on artificial diet, 25° C., five to seven days, average of eight wells, read-out: CL % Control (or Mortality) rating): 50 to 100%; mortality at 200 ppm ([4]; 200 ppm test molecule sprayed on infested cabbage seedlings, three days, Abbott's corrected % control, read-out: GPA % Control (or Mortality) rating): 80 to 100%
Cc1cc(NC(=O)[C@H]2[C@H](c3ccc(F)c(Cl)c3)C2(Cl)Cl)cc(C(=O)NCC(F)(F)C(F)(F)F)c1Cl (relative stereo) [F2039, trans-2-Chloro-5-(2,2-dichloro-3-(3-chloro-4-fluorophenyl)cyclopropane-1-carboxamido)-3-methyl-N-(2,2,3,3,3-pentafluoropropyl)benzamide] | A (80–100) | 50 to 100% | 50 to 100% | 80 to 100% |  |  |  |  | 
O=C(CCCNC(=O)c1cc(NC(=O)[C@H]2[C@H](c3cc(Cl)cc(Cl)c3)C2(Cl)Cl)ccc1Cl)NCC(F)(F)F (relative stereo) [F2080, trans-2-Chloro-5-(2,2-dichloro-3-(3,5-dichlorophenyl)cyclopropane-1-carboxamido)-N-(4-oxo-4-(2,2,2-trifluoroethylamino)butyl)benzamide] | B (More than 0 – Less than 80) | 50 to 100% | 50 to 100% | 0 to 80% |  |  |  |  | 
Nc1ccc(F)c(NC(=O)c2cc(NC(=O)[C@H]3[C@H](c4cc(Cl)c(Cl)c(Cl)c4)C3(Cl)Cl)ccc2Cl)c1F [F1228, N-(3-Amino-2,6-difluorophenyl)-2-chloro-5-((1R,3R)-2,2-dichloro-3-(3,4,5-trichlorophenyl)cyclopropane-1-carboxamido)benzamide] |  |  |  |  |  |  |  |  | YFM [1, 8]: A (80–100); pest or weed control at 50 µg/cm2 [2, 9]: 50 to 100%; pest or weed control at 50 µg/cm2 [3, 10]: 50 to 100%; pest or weed control at 200 µg/mL [4, 11]: 0 to 80%
CCCC(=O)Nc1c(F)ccc(NC(=O)c2cc(NC(=O)[C@H]3[C@H](c4cc(Cl)c(Cl)c(Cl)c4)C3(Cl)Cl)ccc2Cl)c1F [F1655, N-(3-Butyramido-2,4-difluorophenyl)-2-chloro-5-((1R,3R)-2,2-dichloro-3-(3,4,5-trichlorophenyl)cyclopropane-1-carboxamido)benzamide] |  |  |  |  | B (More than 0 – Less than 80) | 50 to 100% | 50 to 100% | 0 to 80% | 
O=C(COC(F)(F)F)Nc1c(F)ccc(NC(=O)c2cc(NC(=O)[C@H]3[C@H](c4ccc(F)c(C(F)(F)F)c4)C3(Cl)Cl)ccc2Cl)c1F [F1742, 2-Chloro-5-((1R,3R)-2,2-dichloro-3-(4-fluoro-3-(trifluoromethyl)phenyl)cyclopropane-1-carboxamido)-N-(2,4-difluoro-3-(2-(trifluoromethoxy)acetamido)phenyl)benzamide] |  |  |  |  | A (80–100) | 50 to 100% | 50 to 100% | 0 to 80% | 
O=C(CNC(=O)c1cc(NC(=O)[C@H]2[C@H](c3cc(Cl)cc(Cl)c3)C2(Cl)Cl)ccc1Cl)NCCC(F)(F)F (relative stereo) [F2081, trans-2-Chloro-5-(2,2-dichloro-3-(3,5-dichlorophenyl)cyclopropane-1-carboxamido)-N-(2-oxo-2-(3,3,3-trifluoropropylamino)ethyl)benzamide] | A (80–100) | 50 to 100% | 50 to 100% | 80 to 100% |  |  |  |  | 
Nc1cc(NC(=O)c2cc(NC(=O)[C@H]3[C@H](c4ccc(F)c(C(F)(F)F)c4)C3(Cl)Cl)ccc2Cl)c(F)c(F)c1F [F1740, N-(5-Amino-2,3,4-trifluorophenyl)-2-chloro-5-((1R,3R)-2,2-dichloro-3-(4-fluoro-3-(trifluoromethyl)phenyl)cyclopropane-1-carboxamido)benzamide] |  |  |  |  | A (80–100) | 50 to 100% | 50 to 100% | 80 to 100% | 
COCCC(=O)Nc1c(F)ccc(NC(=O)c2cc(NC(=O)[C@H]3[C@H](c4ccc(F)c(C(F)(F)F)c4)C3(Cl)Cl)ccc2Cl)c1F [F1489, 2-Chloro-5-((1R,3R)-2,2-dichloro-3-(4-fluoro-3-(trifluoromethyl)phenyl)cyclopropane-1-carboxamido)-N-(2,4-difluoro-3-(3-methoxypropanamido)phenyl)benzamide] |  |  |  |  | A (80–100) | 50 to 100% | 50 to 100% | 0 to 80% | 
O=C(NCCCCl)c1c(Cl)ccc(NC(=O)[C@H]2[C@H](c3ccc(F)c(Cl)c3)C2(Cl)Cl)c1Cl (relative stereo) [F2026, trans-2,6-Dichloro-N-(3-chloropropyl)-3-(2,2-dichloro-3-(3-chloro-4-fluorophenyl)cyclopropane-1-carboxamido)benzamide] | A (80–100) | 50 to 100% | 50 to 100% | 0 to 80% |  |  |  |  | 
CC(=O)Nc1c(F)ccc(NC(=O)c2cc(NC(=O)[C@H]3[C@H](c4cc(F)cc(C(F)(F)F)c4)C3(Cl)Cl)ccc2Cl)c1F [F1708, N-(3-Acetamido-2,4-difluorophenyl)-2-chloro-5-((1R,3R)-2,2-dichloro-3-(3-fluoro-5-(trifluoromethyl)phenyl)cyclopropane-1-carboxamido)benzamide] |  |  |  |  | A (80–100) | 50 to 100% | 50 to 100% | 80 to 100% | 
O=C(NCC(F)(F)F)c1cc(NC(=O)[C@H]2[C@H](c3ccc(F)c(Cl)c3F)C2(Cl)Cl)ccc1Cl (relative stereo) [F2011, trans-2-Chloro-5-(2,2-dichloro-3-(3-chloro-2,4-difluorophenyl)cyclopropane-1-carboxamido)-N-(2,2,2-trifluoroethyl)benzamide] | A (80–100) | 50 to 100% | 50 to 100% | 0 to 80% |  |  |  |  | 
O=C(Nc1ccc(F)c(NC(=O)C2CC(F)(F)C2)c1F)c1cc(NC(=O)[C@H]2[C@H](c3ccc(F)c(C(F)(F)F)c3)C2(Cl)Cl)ccc1Cl [F1644, 2-Chloro-5-((1R,3R)-2,2-dichloro-3-(4-fluoro-3-(trifluoromethyl)phenyl)cyclopropane-1-carboxamido)-N-(3-(3,3-difluorocyclobutane-1-carboxamido)-2,4-difluorophenyl)benzamide] |  |  |  |  | B (More than 0 – Less than 80) | 50 to 100% | 50 to 100% | 0 to 80% | 
O=C(Nc1ccc(F)cc1F)c1cc(NC(=O)[C@H]2[C@H](c3cc(Cl)c(Cl)c(C(F)(F)F)c3)C2(Cl)Cl)ccc1Cl (relative stereo) [F1147, trans-2-Chloro-5-(2,2-dichloro-3-(3,4-dichloro-5-(trifluoromethyl)phenyl)cyclopropane-1-carboxamido)-N-(2,4-difluorophenyl)benzamide] |  |  |  |  |  |  |  |  | YFM [1, 8]: A (80–100); pest or weed control at 50 µg/cm2 [2, 9]: 50 to 100%; pest or weed control at 50 µg/cm2 [3, 10]: 50 to 100%; pest or weed control at 200 µg/mL [4, 11]: 80 to 100%
O=C(Nc1ccc(F)c(NC(=O)C(F)(F)F)c1F)c1cc(NC(=O)[C@H]2[C@H](c3ccc(Cl)c(Cl)c3)C2(Cl)Cl)ccc1F [F1492, 5-((1R,3R)-2,2-Dichloro-3-(3,4-dichlorophenyl)cyclopropane-1-carboxamido)-N-(2,4-difluoro-3-(2,2,2-trifluoroacetamido)phenyl)-2-fluorobenzamide] |  |  |  |  | A (80–100) | 50 to 100% | 50 to 100% | 0 to 80% | 
O=C(Nc1ccc(F)cc1F)c1c(Cl)ccc(NC(=O)[C@H]2[C@H](c3ccc(F)c(Cl)c3)C2(Cl)Cl)c1Cl (relative stereo) [F1105, trans-2,6-dichloro-3-(2,2-dichloro-3-(3-chloro-4-fluorophenyl)cyclopropane-1-carboxamido)-N-(2,4-difluorophenyl)benzamide] |  |  |  |  |  |  |  |  | YFM [1, 8]: A (80–100); pest or weed control at 50 µg/cm2 [2, 9]: 50 to 100%; pest or weed control at 50 µg/cm2 [3, 10]: 50 to 100%; pest or weed control at 200 µg/mL [4, 11]: 0 to 80%
